Source: patent US20140154389A1, “PRODUCTION OF CHEESE WITH S. THERMOPHILUS” (DuPont Nutrition BioSciences ApS, priority 2011, published 2014)

System: urease enzyme of ur(+) S. thermophilus
Test: Floating curd experiment in test tubes (Example 3)
Set-up: species or system Streptococcus thermophilus
Conditions: milk fermented at 35° C. to pH 4.65, sample heated at about 66° C. for 2 x 10 minutes; flurofamide added to the blend of Lactococci and ur(+) S. thermophilus
Experimental: Four experiments were conducted in which milk was treated with various bacteria. In experiment 1, only Lactococci bacteria were added. In experiment 2, a blend of Lactococci bacteria and ur(+) S. thermophilus bacteria were added. In experiment 3, a blend of Lactococci bacteria, ur(+) S. thermophilus bacteria, and the urease inhibitor flurofamide were added. In experiment 4, only ur(+) S. thermophilus bacteria were added.
In each experiment, the milk was fermented with the bacteria at 35° C. until the cheese reached a pH of 4.65. A sample of the cheese was placed into a test tube, which was heated at about 66° C. for about 10 minutes. After 10 minutes of heating, a small pipette or thin wire was used to agitate the sample. The samples were held at about 66° C. for another ten minutes, at which time the photograph of the test tubes depicted in FIG. 3, was taken.
Test tube 4 is a positive control that contains ur(+) S. thermophilus, which has urease enzymes that can hydrolyze urea in milk.

floating curd in test tube: no floating curd
SMILES: NP(N)(=O)NC(=O)c1ccc(F)cc1 [flurofamide]
